Test results as given in ChEMBL document CHEMBL1139185, “Methyl spongoate, a cytotoxic steroid from the Sanya soft coral Spongodes sp” (Bioorg Med Chem Lett, 2007).
In brackets after ≈: the same amount, converted by molar mass.

Legend:
Format in all cases: functional, cell-based
A549 = assay: Cytotoxicity against human A549 cells
Bel-7402 = assay: Cytotoxicity against human BEL-7402 cells
HT-29 = assay: Cytotoxicity against human HT29 cells
P388 = assay: Cytotoxicity against mouse P388 cells

COC(=O)[C@H](CCCC(C)C)[C@H]1CC[C@H]2[C@@H]3CC[C@H]4CC(=O)C=C[C@]4(C)[C@H]3CC[C@]12C [METHYL SPONGOATE]
IC50 (A549): 5 µg/mL (≈ 11.7 µM) | IC50 (Bel-7402): 0.14 µg/mL (≈ 0.327 µM) | IC50 (HT-29): 5 µg/mL (≈ 11.7 µM) | IC50 (P388): 3.8 µg/mL (≈ 8.86 µM)
